This series has as its system MES-SA uterine sarcoma cells. Type of series: cell-based, human. The note with it: for Inhibition of cell proliferation: 5 μM, counted after 72 h; for IC50: cells counted after 72 h, ± SEM. How it is done:
MES-SA cells were treated for 1 h at 37 or 42° C. with 5 μM Tat-ELP-GFLG-DOX (SEQ ID NO: 3); ELP-GFLG-DOX (SEQ ID NO: 3), which lacks the Tat cell penetrating peptide; or Tat-ELP-GFLG (SEQ ID NO: 3), which is not labeled with DOX. After the 1 h treatment, cells were rinsed and fresh media was replaced for 72 h. Cells remaining after 72 h were collected by trypsinization and counted using a Coulter counter. […] Similarly, the control polypeptide which lacks the Tat sequence was not cytotoxic, likely because it cannot efficiently enter the cells.
1.8 Cytotoxicity Assay. Cells were plated and treated for 1 h at 37° C. and 42° C. as described above with Tat-ELP1-GFLG-Dox (SEQ ID NO: 3), Tat-ELP2-GFLG-Dox (SEQ ID NO: 3), or control polypeptides lacking the Tat sequence or unlabeled with Dox. Cells were rinsed and harvested 72 h after treatment by trypsinization, collected by centrifugation, and resuspended in isotonic buffer. Cell number was determined using a Coulter counter and expressed as a percentage of untreated cells.
1.10. Data Fitting and Statistical Analysis. The concentration dependence of the Tt was fit with a logarithmic equation using Microsoft Excel. Dose-response curves were fit using exponential or sigmoid equations as applicable using Microcal Origin in order to determine the 50% inhibitory concentration (IC50). […] The significance of the thermal targeting index was assessed by comparing the normothermia group with the hyperthermia group using a paired Student's t-test in Microsoft Excel. p values of less than 0.05 were considered statistically significant. Polypeptide uptake and caspase activation were analyzed for statistical differences using one-way ANOVA analyses with post-hoc Scheffe's tests for pair-wise comparisons of treatment groups. The statistical significance level was p<0.05.
3.5. Cytotoxicity of ELP-delivered Dox. The growth-inhibitory activity of Tat-ELP-GFLG-Dox (SEQ ID NO: 3) was evaluated in the MES-SA uterine sarcoma cell line. MES-SA cells were treated for 1 h at 37° C. or 42° C. with various concentrations of Tat-ELP-GFLG-Dox (SEQ ID NO: 3); ELP-GFLG-Dox (SEQ ID NO: 3), which lacks the Tat cell penetrating peptide, the Tat-ELP-GFLG (SEQ ID NO: 3) polypeptide without Dox; or free Dox. After the 1 h treatment, the cells were rinsed and fresh media was replaced for 72 h. Cells remaining after 72 h were rinsed, collected by trypsinization, and counted using a Coulter counter. […] The toxicity of the unlabeled Tat-ELP-GFLG (SEQ ID NO: 3) protein was negligible when treated below the Tt.

The term IC50 denotes the concentration needed to halve the response being measured.

Where two headings read alike, the source gives them in different places.

Consider Tat-ELP1-GFLG-Dox, for which the Cytotoxicity in words entry is “cytotoxic at 37° C., but high concentrations were needed” and the “Enhancement of cytotoxicity (reduction of IC50) by hyperthermia” value was “twenty-fold”. In addition, the “Inhibition of cell proliferation” value (1 h at 37° C.) was “little toxicity”. Moreover, the “Inhibition of cell proliferation” value (1 h at 42° C.) is on record as “complete inhibition of cell proliferation”. For the same substance, where the note is “1 h treatment at 37° C., read-out: IC50 (37° C.)”, the IC50 was 21.9 ± 8.2 µM. For the same substance, the IC50 (1 h treatment at 42° C., read-out: IC50 (42° C.)) was determined as 1.1 ± 0.1 µM.

The record behind these values is patent publication US8252740B2, “Thermally-targeted delivery of medicaments including doxorubicin” (The University of Mississippi Medical Center, priority 2006, dated 2012).
